Measurements published in paper PMC7217877, “N-AS-triggered SPMs are direct regulators of microglia in a model of Alzheimer’s disease” (Nature Communications, 2020).
“And” between values parts separate entries of the source, which are not always exact repeats. Identical values can stand only once.

System: astrocyte
Experiment: western blotting for ac-S565 and total COX2 in primary cells
Type: cell-based, C57BL/6 mice
Conditions: Ab 10mM, replicates
Protocol: To confirm the generation and roles of N-AS in neurons, cells from E18 C57BL/6 mice were prepared as previously described. Cortices were dissected and then dissociated followed by incubation in papain (Worthington) at 37 °C for 15 min. Neurons were plated on poly-L-lysine-coated coverslips with neuronal culture medium, serum-free Neurobasal medium (Gibco) containing 2% B27 supplements (Gibco), 1 mM Glutamax supplement (Gibco), and 100 U ml^−1 streptomycin/ 100 U ml^−1 penicillin (Gibco) at 37 °C in a humidified atmosphere of 5% CO2. Aβ 1–42 (10 μM, 24 h, Invitrogen, 03112) was exposed to neurons and the cells were analyzed for the generation and roles of N-AS. Primary astrocyte cultures were prepared from C57BL/6 mice as described previously. In brief, after removal of the meninges, postnatal day 7 (P7) mouse brain tissues were minced and incubated in a rocking water bath at 37 °C for 30 min in the presence of 0.25% trypsin-EDTA (Sigma-Aldrich). […] The human microglia treated with Aβ 1–42 and/or zileuton was incubated with N-AS (2.5 μM, 2 h, Sigma-Aldrich, 01912), and were analyzed for the generation and roles of N-AS.
Samples were lysed in RIPA buffer (Cell signaling Technologies), then subjected to SDS-PAGE and transferred to a nitrocellulose membrane. […] We performed densitometric quantification using the ImageJ software (National Institutes of Health). […]

Substance: Ab: Aβ 1–42 (Invitrogen, 03112) used to induce an AD environment in cells
- ac-S565 / total COX2, western blotting (Fig 3b): 0.1055 and 0.07523 and 0.08324 and 0.06718 and 0.09034 and 0.07923
